The NIST ThermoML archive (doi:10.1021/acs.jced.6b00354)
Numbers after ± are expanded uncertainties.

Assay: mn = molality of the nth substance listed, in mol/kg
Conditions: 100 kPa, Liquid, Alternating current cell with electrodes

CCn1cc[n+](C)c1.F[B-](F)(F)F [1-ethyl-3-methylimidazolium tetrafluoroborate] + CC(=O)N(C)C
electrical conductivity [S/m]
Conditions | 283.15 K | 288.15 K | 293.15 K | 298.15 K | 303.15 K | 308.15 K | 313.15 K | 318.15 K
m1 = 0.0005629 | 0.0031908 ± 1.6e-06 | 0.0034405 ± 1.7e-06 | 0.0036939 ± 1.8e-06 | 0.0039526 ± 1.9e-06 | 0.0042191 ± 2e-06 | 0.004484 ± 2.1e-06 | 0.0047434 ± 2.2e-06 | 0.0050185 ± 2.3e-06
m1 = 0.0006895 | 0.0038906 ± 2e-06 | 0.004193 ± 2.1e-06 | 0.0045017 ± 2.2e-06 | 0.0048205 ± 2.3e-06 | 0.0051443 ± 2.4e-06 | 0.0054656 ± 2.5e-06 | 0.0057804 ± 2.7e-06 | 0.0061132 ± 2.8e-06
m1 = 0.000982 | 0.0054941 ± 2.8e-06 | 0.0059172 ± 2.9e-06 | 0.0063518 ± 3.1e-06 | 0.0067988 ± 3.3e-06 | 0.0072509 ± 3.4e-06 | 0.0077078 ± 3.6e-06 | 0.0081485 ± 3.7e-06 | 0.0086157 ± 3.8e-06
m1 = 0.001939 | 0.010589 ± 6e-06 | 0.011412 ± 6e-06 | 0.012243 ± 6e-06 | 0.013099 ± 6e-06 | 0.013967 ± 7e-06 | 0.014834 ± 7e-06 | 0.015676 ± 7e-06 | 0.016565 ± 7e-06
m1 = 0.002956 | 0.015824 ± 8e-06 | 0.017057 ± 8e-06 | 0.018294 ± 9e-06 | 0.019571 ± 9e-06 | 0.020868 ± 1e-05 | 0.022135 ± 1e-05 | 0.023398 ± 1.1e-05 | 0.024707 ± 1.1e-05
m1 = 0.004046 | 0.021327 ± 1.1e-05 | 0.022927 ± 1.1e-05 | 0.024608 ± 1.2e-05 | 0.026319 ± 1.3e-05 | 0.028044 ± 1.3e-05 | 0.029762 ± 1.4e-05 | 0.031425 ± 1.4e-05 | 0.033169 ± 1.5e-05
m1 = 0.005688 | 0.029289 ± 1.5e-05 | 0.031559 ± 1.5e-05 | 0.033817 ± 1.6e-05 | 0.036147 ± 1.7e-05 | 0.038528 ± 1.8e-05 | 0.040878 ± 1.9e-05 | 0.043126 ± 1.9e-05 | 0.045508 ± 2e-05
m1 = 0.007809 | 0.039246 ± 2e-05 | 0.042233 ± 2.1e-05 | 0.045277 ± 2.2e-05 | 0.048414 ± 2.3e-05 | 0.051576 ± 2.4e-05 | 0.054665 ± 2.5e-05 | 0.057654 ± 2.6e-05 | 0.060821 ± 2.7e-05
m1 = 0.009857 | 0.048544 ± 2.4e-05 | 0.052266 ± 2.6e-05 | 0.056056 ± 2.7e-05 | 0.059913 ± 2.8e-05 | 0.063775 ± 2.9e-05 | 0.067588 ± 3.1e-05 | 0.071261 ± 3.2e-05 | 0.075126 ± 3.3e-05
m1 = 0.01192 | 0.057623 ± 2.9e-05 | 0.062014 ± 3e-05 | 0.06648 ± 3.2e-05 | 0.071 ± 3.3e-05 | 0.075636 ± 3.5e-05 | 0.08016 ± 3.6e-05 | 0.08449 ± 3.8e-05 | 0.089017 ± 3.9e-05
m1 = 0.01392 | 0.066221 ± 3.3e-05 | 0.071259 ± 3.5e-05 | 0.076376 ± 3.6e-05 | 0.081634 ± 3.8e-05 | 0.08688 ± 4e-05 | 0.09207 ± 4.1e-05 | 0.097012 ± 4.3e-05 | 0.10224 ± 5e-05
m1 = 0.01584 | 0.074143 ± 3.7e-05 | 0.079848 ± 3.9e-05 | 0.085601 ± 4.1e-05 | 0.091493 ± 4.3e-05 | 0.097323 ± 4.5e-05 | 0.10312 ± 5e-05 | 0.10873 ± 5e-05 | 0.11459 ± 5e-05
